In the experiment the target is T1, recombinant human Cyp19 enzyme (Homo sapiens, UniProt P11511).
T1 construct: purchased Becton Dickinson Biosciences, San Jose, Calif., USA
T1 sequence (P11511 1-503): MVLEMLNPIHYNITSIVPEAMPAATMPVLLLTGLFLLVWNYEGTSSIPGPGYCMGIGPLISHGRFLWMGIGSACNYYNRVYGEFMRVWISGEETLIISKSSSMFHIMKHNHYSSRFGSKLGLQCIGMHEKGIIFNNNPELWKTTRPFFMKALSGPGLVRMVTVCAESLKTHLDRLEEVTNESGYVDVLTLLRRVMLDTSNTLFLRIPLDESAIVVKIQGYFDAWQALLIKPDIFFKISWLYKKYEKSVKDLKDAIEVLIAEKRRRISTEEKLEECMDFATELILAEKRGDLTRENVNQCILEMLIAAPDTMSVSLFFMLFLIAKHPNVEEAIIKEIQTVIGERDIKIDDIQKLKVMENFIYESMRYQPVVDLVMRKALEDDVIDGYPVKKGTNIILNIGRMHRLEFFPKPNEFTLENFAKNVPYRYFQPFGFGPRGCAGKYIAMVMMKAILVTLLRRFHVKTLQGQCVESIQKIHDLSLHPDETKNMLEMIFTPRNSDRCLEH
Nature of the experiment: Cyp19/methoxy-4-trifluoromethyl-coumarin (MFC) high throughput inhibition kit. Type of experiment: biochemical. Particulars: Cyp19 supersomes, MFC substrate. The protocol:
A compound of formula (I) is to be understood as a compound having a specific configuration around the designated asymmetric carbon atom labelled “*”. If a synthesis method is used which leads to racemic compounds, the racemate resolution is carried out in accordance with conventional methods, such as via a chiral HPLC column. […] The aforementioned activity can, readily and as described below, be determined by using a commercial Cyp19 enzyme inhibition kit, preferably the Cyp19/methoxy-4-trifluoromethyl-coumarin (MFC) high throughput inhibition kit (Becton Dickinson Biosciences, San Jose, Calif., USA) as described hereafter. In the above-mentioned inhibition kit, compounds of the formula (I) show an inhibiting activity which is at least 10 times higher, but preferably 20 times higher, or more preferably 40 times higher, than the substances of the formula (I) with the opposite configuration around the asymmetric carbon atom labelled “*”. A higher inhibiting activity corresponds to a lower IC50 value.
These effects are demonstrable in in vitro assay tests using cell-free and cellular systems. […] The Cyp19/Methoxy-4-trifluoromethyl-coumarin (MFC) high throughput inhibition kit (Becton Dickinson Biosciences, San Jose, Calif., USA), for example, is designed to screen for potential inhibitors of Cyp19 catalytic activity in a 96-well format. […]

Take `N#Cc1ccc(C2OCCn3cncc32)cc1` (stereo not shown) [antipode of 1]: the IC50 amounted to 2.77 µM.

These data come from patent US7795253B2, “Condensed imidazole derivatives as aromatase inhibitors” (Novartis AG, priority 2006, dated 2010).
